From patent publication US20110053892A1, “Imidazo[4,5-d]Pyridazine Compounds For Treating Viral Infections” (priority 2009, published 2011) come the findings set out here.

Molecules are shown by their SMILES.

The test system of the data set is HCV Genotype 1B replicon cells. The data set is classed as cell-based. The conditions noted are these: Table 3; cytotoxicity, cell titer glo. An excerpt:
The genotype 1a replicon contains several adaptive mutations (NS4B Q31H, NS5A K68R, NS5A S232I), the luciferase gene and encodes for neomycin resistance. The genotype 1b replicon, also referred to as the ET replicon, is stably transfected with RNA transcripts harboring a I389luc-ubi-neo/NS3-3′/ET replicon with firefly luciferase-ubiquitin-neomycin phosphotransferase fusion protein and EMCV-IRES driven NS3-5B polyprotein containing the cell culture adaptive mutations (E1202G; T1280I; K1846T) See, Kreiger, et al., Journal of Virology 75:4614-4624 (2001). Both cell lines were grown in DMEM, supplemented with 10% fetal calf serum, 2 mM Glutamine, Penicillin (100 IU/mL)/Streptomycin (100 μg/mL), 1× nonessential amino acids, and 250 μg/mL G418 (“Geneticin”). They were all available through Life Technologies (Bethesda, Md.). The cells were plated at 0.5×10^4 cells/well in 384 well plates containing compounds. The final concentration of compounds ranged between 0.1 nM to 50 μM and the final DMSO concentration of 0.5%.
Luciferase activity was measured 48 hours later by adding a Steady glo (Promega, Madison, Wis.). Percent inhibition of replication data was plotted relative to no compound control. Under the same condition, cytotoxicity of the compounds was determined using cell titer glo (Promega, Madison, Wis.). EC50 values were determined from a 10 point dose response curve using 2-4 fold serial dilutions for each compound, which spans a concentration range of at least a 1000 fold. Replicon EC50 values, the concentration of compound required to inhibit 50% of the assay response, were calculated by curve fitting data to the Hill equation, using a non-linear least-squares curve-fitting program. The software tested the data for quality and rejected compounds with high and low activity before fitting the equation below.
(Cellular ATP, detected with luciferase, serves as a proxy for viable cell number.)
By CC50 is commonly meant the concentration that lowers cell viability or growth by half. A higher CC50 goes with lower toxicity to the cells. For `O=C(OCCOCCO)C(c1cc(-c2ccc(C3CC3)cc2C(F)(F)F)no1)n1cc2nc(-c3cccc(F)c3F)nc-2cn1` (stereo not shown) [Compound 179, 2-[(2-hydroxyethyl)oxy]ethyl {3-[4-cyclopropyl-2-(trifluoromethyl)phenyl]-5-isoxazolyl}[2-(2,3-difluorophenyl)-5H-imidazo[4,5-d]pyridazin-5-yl]acetate], the CC50 is 50 µM.
On to `COC(=O)C(c1cc(-c2ccc(C3CC3)cc2C(F)(F)F)no1)n1cc2nc(-c3cccc(F)c3F)nc-2cn1` (stereo not shown) [Compound 178, Methyl {3-[4-cyclopropyl-2-(trifluoromethyl)phenyl]-5-isoxazolyl}[2-(2,3-difluorophenyl)-5H-imidazo[4,5-d]pyridazin-5-yl]acetate], for which the CC50 was 25 µM.
As for `O=C(OCCCO)C(c1cc(-c2ccc(C3CC3)cc2C(F)(F)F)no1)n1cc2nc(-c3cccc(F)c3F)nc-2cn1` (stereo not shown) [Compound 182, 3-Hydroxypropyl {3-[4-cyclopropyl-2-(trifluoromethyl)phenyl]-5-isoxazolyl}[2-(2,3-difluorophenyl)-5H-imidazo[4,5-d]pyridazin-5-yl]acetate], the CC50 was above 50 µM.
For `CCCOC(=O)C(c1cc(-c2ccc(C3CC3)cc2C(F)(F)F)no1)n1cc2nc(-c3cccc(F)c3F)nc-2cn1` (stereo not shown) [Compound 184, Propyl {3-[4-cyclopropyl-2-(trifluoromethyl)phenyl]-5-isoxazolyl}[2-(2,3-difluorophenyl)-5H-imidazo[4,5-d]pyridazin-5-yl]acetate], the CC50 turned out to be 25 µM.
